Entries after “also recorded” stand apart in the source; their conditions may differ. Where no end group is shown, it is not given here.
What was measured:
[1] = tested on: P. aeruginosa cells; experiment: Oxygen consumption measurement (polarographic), P. aeruginosa; type: cell-based, Pseudomonas aeruginosa; conditions: after 30 min; defensins 2 x NPIC, human lactoferrin 20 μM, piericidin A 32 µM; preincubated 15 min at 37 °C; untreated cells 83% ± 2%; means ± SD, three experiments
Description: (§1) Oxygen consumption by C. albicans and P. aeruginosa cells was determined by polarographically using a biological oxygen monitor (dual digital-model 20; Rank Brothers Ltd., Cambridge, UK) at 25 °C. The apparatus consisted of a twin water-jacketed closed sample chamber, which enabled a control experiment to be conducted concurrently. The cells were grown to mid-log phase in SDB (C. albicans) or TSB (P. aeruginosa), washed twice in Tris buffer, and resuspended in the same buffer. Cell suspensions (approximately 10^7 cells/mL) were preincubated with defensins (2 x NPIC), human lactoferrin (20 μM), or piericidin A (32 μM) for 15 min at 37 °C. Oxygen consumption was recorded at 5-min intervals for a period of 30 min. Three independent experiments were performed, and the data are means ± SD.

[2] = tested on: Pma1p H^+-ATPase; conditions: Table 2; no reference given
Description: A whole-cell proton transport assay was used to evaluate the possible inhibition of the fungal Pma1p H^+-ATPase by defensins.
To measure proton pumping from Pma1p H^+-ATPase activity, a glucose-induced acid extrusion assay was performed as previously described with modifications. Briefly, cultures of C. albicans cells were grown to mid-log phase in SDB medium and washed twice in 100 mM Tris-HCl (pH 8.0). The cells were then resuspended in 50 mM KCl and maintained for 18 h at 4 °C to reduce metabolic activity to a minimum (starvation conditions). To determine external acidification, starved cells (approximately 10^7 cells/mL) were incubated for 15 min at 37 °C in the presence or absence of the defensins (2 x NPIC). Cells incubated with 20 µM human lactoferrin or 0.5 µM BM2 peptide were used as positive controls. The initial pH of the cell suspension was adjusted to approximately pH 6.8 with HCl, and glucose (final concentration of 2.5 mM) was immediately added to the cell suspension. The pH of the medium was recorded at 5-min intervals for 20 min using a SevenMulti S50-K pH meter (Mettler-Toledo, Greifensee, Switzerland) with a calibrated electrode (InLab 413, Mettler-Toledo) under constant stirring. Each experiment was repeated three times in an independent manner.

[3] = set-up: method as in 19 sources, ref 24; PMID 3290255; doi:10.1172/JCI113527; 24. Lehrer R.I. Ganz T. Szklarek D. Selsted M.E. Modulation of the in vitro candidacidal activity of human neutrophil defensins by target cell metabolism and divalent cations J. Clin. Invest. 1988 81 || [47]; PMID 11083633; doi:10.1128/AAC.44.12.3310-3316.2000; 47. Edgerton M. Koshlukova S.E. Araujo M.W. Patel R.C. Dong J. Bruenn J.A. Salivary histatin 5 and human neutrophil defensin 1 kill Candida albicans via shared pathways Antimicrob. Agents Chemother. 2 ||| ref 20 = [20]; PMID 17074797; doi:10.1128/AAC.00478-06; 20. Vylkova S. Nayyar N. Li W. Edgerton M. Human beta-defensins kill Candida albicans in an energy-dependent and salt-sensitive manner without causing membrane disruption Antimicrob. Agents Chemother. ||| ref 24, 62 (HNP-1); 62, 63 (HNP-4); 20 (hBD-2); 12, 20 (hBD-3); 34, 35, 64 cidal and 65, 66 static (lactoferrin) ||| ref 26 (HNP-1); 12 (HNP-4); 11 (hBD-2, hBD-3); 43, 67 (lactoferrin) ||| ref 14 (HNP-1); 23 (HNP-4); Yes 11, 13 / No 20 (hBD-2); No 20 / Yes 11 (hBD-3); 31, 34, 42 (lactoferrin) ||| ...; conditions: cited from earlier work; for candidacidal activity on C. albicans cells treated with CCCP: CCCP at pH 7.4; for Cell death inhibitors, intracellular: Azide: 24 (HNP-1); for Cell death inhibitors, intracellular: Azide / Cell death inhibitors, extracellular: Ca^2+ or Mg^2+: 20 (hBD-2, hBD-3); for Cidal/static: 62 (HNP-1), 62, 63 (HNP-4), 12, 20 (hBD-3), 34, 35, 64 cidal and 65, 66 static (lactoferrin); for Cidal/static / Cell death inhibitors, extracellular: K^+ or Na^+: 20 (hBD-2); for Antimicrobial range: Gm+ Gram-positive bacteria, Gm− Gram-negative bacteria, F fungi, V viruses, P protozoa, no reference given; for Membrane permeabilization: ref 14 (HNP-1), 23 (HNP-4), Yes 11, 13 / No 20 (hBD-2), No 20 / Yes 11 (hBD-3), 31, 34, 42 (lactoferrin); for Cell death inhibitors, extracellular: Ca^2+ or Mg^2+: 43 (lactoferrin); for Membrane depolarization: ref 26 (HNP-1), 12 (HNP-4), 11 (hBD-2, hBD-3), 43, 67 (lactoferrin); for Cell death inhibitors, extracellular: K^+ or Na^+: ref 68 (HNP-1), 69 (HNP-4), No 11, 12 / Yes 20 (hBD-3), 31, 36, 43 (lactoferrin)
[4] = tested on: C. albicans cells; experiment: Oxygen consumption measurement (polarographic), C. albicans; type: cell-based, Candida albicans; conditions: after 30 min; defensins 2 x NPIC, human lactoferrin 20 μM, piericidin A 32 µM; preincubated 15 min at 37 °C; untreated cells 94% ± 2%; means ± SD, three experiments
Description: as §1

[5] = tested on: Candida albicans ATCC 10231; experiment: Antimicrobial spread-plate (CFU) killing assay, C. albicans; type: cell-based; conditions: for candidacidal activity (comparison among defensins): 0–2 μM, 90 min at 37 °C, Tris buffer; for effect of high extracellular K+ on candidacidal activity: 50 mM KCl, defensins at NPIC, hLf 5 μM, BM2 0.25 μM, nystatin 50 μM; for non-permeabilizing inhibitory concentration (NPIC), C. albicans: antimicrobial concentration (≤10% viable cells) that permeabilized ≤10% of cells, 10^6 cells/mL, Tris buffer pH 7.4, 90 min at 37 °C, from Figure 1 data, duplicates of three experiments; for effect of piericidin A on candidacidal activity: cells preincubated 15 min at 37 °C with 32 µM piericidin A, then peptides (NPIC) 90 min; for effect of oligomycin A on candidacidal activity: preincubated 15 min at 37 °C with 16 μg/mL oligomycin A, peptides at NPIC
Description: To determine whether the above microbicidal concentrations exert a permeabilizing effect on fungal and bacterial membranes, the influx of the fluorescent nucleic acid-binding dye propidium iodide (PI) in cells incubated with the peptides was assessed. In cells, dye uptake reflects membrane permeabilization, as PI itself cannot permeate through an intact phospholipid bilayer. […] To select an antimicrobial but non-permeabilizing concentration of each peptide for further assays, we defined as a non-permeabilizing inhibitory concentration (NPIC) the antimicrobial inhibitory concentration (≤10% viable cells) that permeabilized ≤ 10% of cells incubated (90 min at 37 °C) in buffer solution.
Microbial susceptibility to the peptides was determined in a spread-plate assay as described previously. Briefly, cell suspensions (10^6 cells/mL) in Tris buffer (10 mM Tris-HCl, pH 7.4) were incubated for 90 min at 37 °C with 2-fold serial peptide dilutions. Peptide concentrations ranged from 0 to 2 μM. After incubation, the number of viable cells was determined by plating aliquots (100 μL) in duplicate on plates (SDA for C. albicans, TSA for P. aeruginosa, and M17G agarified medium for L. lactis) that had been dried for 30 min at room temperature in a laminar flow hood. Plates were incubated for 24–48 h at 30 °C (C. albicans and L. lactis) or 24 h at 37 °C (P. aeruginosa). Dilutions yielding 50–200 colonies were counted. Cell viability values, expressed as colony-forming units (CFUs), were calculated relative to the incubation without added peptides and represent the means ± standard deviation (SD) from duplicates of three independent experiments. For inhibition assays, unless otherwise noted, cell suspensions were preincubated (15 min at 37 °C) with the appropriate inhibitor prior to the addition of peptides, but the inhibitor was present throughout the incubation period with the peptide (90 min at 37 °C). Other specific experimental conditions are described as appropriate. In some experiments, the concentrations of human lactoferrin against C. albicans (5 μM), P. aeruginosa (1 μM), and L. lactis (0.065 μM) were used in the control assays. In various viability assays, BM2 peptide (0.25 μM), CCCP (50 μM), colistin (4 μg/mL), nystatin (50 μM), oligomycin A (16 μg/mL), piericidin A (32 μM), and TEA (10 mM) were used.

| Substance | O2 consumption of P. aeruginosa [1] | Inhibition of H^+-extrusion (yeast) [2] | candidacidal activity on C. albicans cells treated with CCCP [3] | Cell death inhibitors, intracellular: Azide ([3]; Table 2, 34 (lactoferrin)) | Cidal/static ([3]; Table 2) | Antimicrobial range ([3]; Table 2) | Membrane permeabilization ([3]; Table 2) | Cell death inhibitors, extracellular: Ca^2+ or Mg^2+ ([3]; Table 2, ref 24 (HNP-1)) | Membrane depolarization ([3]; Table 2) | Cell death inhibitors, extracellular: K^+ or Na^+ ([3]; Table 2) | oxygen consumption percentage of C. albicans [4] | candidacidal activity (comparison among defensins) [5] | effect of high extracellular K+ on candidacidal activity [5] | Cell death inhibitors, extracellular: Tok1p inhibitors (TEA) ([5]; Table 2, no reference given) | non-permeabilizing inhibitory concentration (NPIC), C. albicans [5] | effect of piericidin A on candidacidal activity [5] | effect of oligomycin A on candidacidal activity [5] | other results |
| --- | --- | --- | --- | --- | --- | --- | --- | --- | --- | --- | --- | --- | --- | --- | --- | --- | --- | --- |
| HNP-1: human α-defensin, UniProtKB P59665, 30 amino acids, three disulfide bonds; purchased from PeptaNova | 72% ± 2% | Yes | protected | Yes | Cidal | Gm +,Gm −,F,V,P | Yes | Yes (Ca^2+); also recorded: No (Mg^2+) | Yes | Yes | 87% ± 4% | highest candidacidal activity | significantly protected | Yes | 0.25 µM | significantly less susceptible | significantly (p < 0.001) less susceptible | ATP-efflux ([3]; Table 2): Yes; Cell death inhibitors, intracellular: Antimycin A (+SHAM) ([3]; Table 2): Yes; Cell death inhibitors, intracellular: CCCP or DNP ([3]; Table 2, ref 24 (HNP-1), 34 (lactoferrin)): Yes; Cell death inhibitors, extracellular: Anoxia ([3]; Table 2, ref 24 (HNP-1), 34, 35 (lactoferrin)): Yes; ATP increment ([3]; Table 2, ref 47 (HNP-1), 35 (lactoferrin)): Yes; Cell death inhibitors, intracellular: Oligomycin A ([5]; Table 2, no reference given): Yes; Cell death inhibitors, intracellular: Piericidin A ([5]; Table 2, no reference given, tested on C. albicans and P. aeruginosa in this study): Yes |
| HNP-4: human α-defensin, UniProtKB P12838, 33 amino acids; purchased from PeptaNova (VCSCRLVFCRRTELRVGNCLIGGVSFTYCCTRV; ends and bridges not checked; cysteine pairing not given here; UniProt P12838 64-96, looked up) | 75% ± 2% | Yes | – | – | Cidal | Gm +,Gm −,F,V | Yes | – | Yes | – | 81% ± 3% | – | significantly protected | Yes [69] ND Yes ND ND ND ND ND ND | 0.25 µM | significantly less susceptible | significantly (p < 0.001) less susceptible | – |
| hBD-3: human β-defensin, UniProtKB Q5U7J2, 45 amino acids; purchased from PeptaNova (GIINTLQKYYCRVRGGRCAVLSCLPKEEQIGKCSTRGRKCCRRKK; Beta-defensin 103; UniProt P81534 23-67, looked up) | 82% ± 4% | Yes | protected | Yes | Cidal | Gm +,Gm −, F,V,P | – | No | Yes | No and Yes | 79% ± 4% | highest candidacidal activity | significantly protected | Yes | 0.125 µM | significantly less susceptible | significantly (p < 0.001) less susceptible | – |
